Test results published in PubChem BioAssay (NCI).
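Briefly, cells in 96-well plates were exposed to five compound concentrations for 48 h, and endpoints were estimated by linear interpolation. The concentration for 50% growth inhibition is given as GI50. TGI is the concentration that stops growth completely.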

What was measured:
Test in all cases: growth of human tumour cells (NCI), 48 h
[1] = test system: DLD-1 colon
[2] = test system: M19-MEL melanoma
[3] = test system: HOP-18 NSCLC
[4] = test system: DMS 114 small cell lung
[5] = test system: LXFL 529 NSCLC
[6] = test system: DU-145 prostate
[7] = test system: MDA-MB-231 breast
[8] = test system: PC-3 prostate
[9] = test system: NCI/ADR-RES ovarian

Row | SMILES | TGI [1] | TGI [2] | TGI [3] | TGI [4] | TGI [5] | further results
1 | Cc1nc(-c2cccnc2)sc1C(=O)/C=C/c1cccc([N+](=O)[O-])c1 | > 100 µM | > 100 µM | > 100 µM | > 100 µM |  | 
2 | CCOC(=O)C1(Cc2ccc3ccccc3c2)CCCCC(=O)N1 (stereo not drawn) | > 100 µM | > 100 µM | > 100 µM | 72.9 µM | > 100 µM | 
3 | O=C1C2=C(CCC2)Nc2cccc3ncn1c23 | > 100 µM | > 100 µM | 64.2 µM | > 100 µM | > 100 µM | 
4 | N#Cc1c(-c2ccco2)cc(-c2ccccc2)[nH]c1=O | > 100 µM | > 100 µM |  |  | > 100 µM | 
5 | Cc1ccc(C)c(N2C(=O)C(=O)C(c3nc4ccccc4s3)C(=Nc3cccc4c(=O)[nH][nH]c(=O)c34)C2=O)c1 (stereo not drawn) | > 100 µM |  | > 100 µM | > 100 µM | > 100 µM | 
6 | COc1ccccc1NC(=O)/C(=C/c1ccccc1)C(C)=O | > 100 µM | > 100 µM | > 100 µM | > 100 µM | > 100 µM | 
7 | Cc1ccccc1/C=C/C(=O)c1ccccc1 | 54.9 µM | 61 µM |  | 48 µM | 38.6 µM | 
8 | CC(C)(C)OC(=O)NC1CCCC1=O (stereo not drawn) | > 100 µM | > 100 µM |  |  | > 100 µM | 
9 | Cc1c2ccncc2c(C)c2c1[nH]c1ccc(O)c(OCC(F)(F)F)c12 | 18.2 µM |  |  | 10.7 µM | 15.5 µM | 
10 | CC(C)(C)NCC(COc1ccc([N+](=O)[O-])cc1)OP(c1ccccc1)c1ccccc1 (stereo not drawn) | > 100 µM | > 100 µM |  | 83.9 µM | > 100 µM | 
11 | N#C/C(=C1\SC(N=Nc2ccc(Cl)cc2)C(=O)N1c1ccccc1)c1nc2ccccc2[nH]1 (stereo not drawn) | > 100 µM | 95.4 µM |  |  | > 100 µM | 
12 | CC(=O)[CH-]C(=O)c1ccccc1.CC(=O)[CH-]C(=O)c1ccccc1.CC1(C)OCC(C2OC3OC(C)(C)OC3C2[O-])O1.CC[O-].[Ti+4] (stereo not drawn) | 24.7 µM | 24.5 µM | 56.5 µM |  |  | GI50 [1]: 9.78 µM; GI50 [2]: 10.5 µM; GI50 [3]: 21.4 µM
13 | COC(=O)C1C(=O)N(CCc2c[nH]c3ccccc23)C[C@@H]2CCC(=O)C[C@H]12 (stereo partly drawn) | > 100 µM | > 100 µM |  | > 100 µM | > 100 µM | 
14 | COc1ccc(-c2c(C3=NCCCN3)nnn2-c2ccc([N+](=O)[O-])cc2)cc1 | > 100 µM | > 100 µM | > 100 µM | > 100 µM | > 100 µM | 
15 | N.N.N.N.N.O=S(=O)([O-])S(=O)(=O)[O-].[Co+3] | > 100 µM |  |  |  | > 100 µM | GI50 [5]: > 100 µM; GI50 [1]: > 100 µM
16 | Nc1ccccc1C(=O)C(Br)C(Br)c1ccc2c(c1)OCO2 (stereo not drawn) | > 100 µM | 39.6 µM | 44.4 µM | 40.2 µM | 46 µM | 
17 | CC(C)[O-].CC(C)[O-].O=c1cccccc1[O-].O=c1cccccc1[O-].[Ti+4] | > 100 µM |  | > 100 µM |  | > 100 µM | GI50 [5]: 31 µM; GI50 [1]: 42 µM; GI50 [3]: > 100 µM
18 | O=C(CC1(O)C(=O)Nc2c(Cl)ccc(Cl)c21)c1ccc(Cl)cc1Cl (stereo not drawn) | > 100 µM | 20.1 µM | > 100 µM | 37.4 µM | 29.3 µM | 
19 | COc1cc(C2c3cc4c(cc3[C@@H](Nc3ccc5c(c3)OCCO5)C3COC(=O)[C@H]23)OCO4)cc(OC)c1O (stereo partly drawn) | 5.17 µM | > 35.9 µM | > 100 µM | 3.42 µM | > 100 µM | TGI [6]: > 100 µM; TGI [7]: > 100 µM; TGI [8]: > 100 µM; TGI [9]: > 100 µM
20 | Cc1c(C(=O)/C=C/c2ccccc2[N+](=O)[O-])[n+](=O)c2ccccc2n1[O-] | 17.9 µM | 20.5 µM | 28.7 µM | 18 µM | 16.6 µM | 
21 | Cc1ccc2oc(=O)c(-c3ccccc3)nc2c1 | > 100 µM | 64.8 µM | 84.4 µM |  |  | 
22 | O=C1[C@H]2ON(c3ccccc3)C(c3ccco3)[C@H]2C(=O)N1c1ccc(Cc2ccc(N3C(=O)[C@@H]4ON(c5ccccc5)C(c5ccco5)[C@@H]4C3=O)cc2)cc1 (stereo partly drawn) | > 100 µM | > 100 µM | > 100 µM | > 100 µM | > 100 µM | 
23 | O=S1CSSC1 | 43.1 µM | 14.4 µM | > 100 µM | 19.1 µM | 32.4 µM | 
24 | N#CC(C#N)=c1c2nsnc2c(=C(C#N)C#N)c2nsnc12 | 4.39 µM |  | 5.09 µM | 3.93 µM | 2.99 µM | 
25 | CC(C)(C)c1ccc(OC2CCO2)cc1 (stereo not drawn) |  | 56.1 µM | > 100 µM | > 100 µM | > 100 µM | 
